pKi: −log10 of the molar value.
Assays:
Vasopressin V1a receptor = Vasopressin V1a receptor (Homo sapiens, UniProt P37288); test: Binding affinity to vasopressin 1A receptor (unknown origin)
[1] = target: 5-hydroxytryptamine receptor 2B (Homo sapiens, UniProt P41595); test: Binding affinity to 5HT2b (unknown origin)
Chain of 5-hydroxytryptamine receptor 2B (P41595 whole entry): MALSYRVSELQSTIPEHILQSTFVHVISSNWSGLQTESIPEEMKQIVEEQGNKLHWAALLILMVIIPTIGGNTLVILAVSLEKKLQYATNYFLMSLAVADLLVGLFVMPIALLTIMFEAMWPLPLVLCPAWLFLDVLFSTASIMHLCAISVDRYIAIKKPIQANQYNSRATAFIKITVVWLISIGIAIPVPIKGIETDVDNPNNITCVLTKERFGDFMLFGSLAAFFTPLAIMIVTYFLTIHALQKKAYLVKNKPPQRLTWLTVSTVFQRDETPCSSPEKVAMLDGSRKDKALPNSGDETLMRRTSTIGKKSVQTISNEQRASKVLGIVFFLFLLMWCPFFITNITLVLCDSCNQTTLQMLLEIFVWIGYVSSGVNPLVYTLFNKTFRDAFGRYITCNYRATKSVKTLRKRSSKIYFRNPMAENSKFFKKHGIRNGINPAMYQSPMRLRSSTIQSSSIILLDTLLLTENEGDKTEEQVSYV

Chain of Vasopressin V1a receptor (P37288 whole entry): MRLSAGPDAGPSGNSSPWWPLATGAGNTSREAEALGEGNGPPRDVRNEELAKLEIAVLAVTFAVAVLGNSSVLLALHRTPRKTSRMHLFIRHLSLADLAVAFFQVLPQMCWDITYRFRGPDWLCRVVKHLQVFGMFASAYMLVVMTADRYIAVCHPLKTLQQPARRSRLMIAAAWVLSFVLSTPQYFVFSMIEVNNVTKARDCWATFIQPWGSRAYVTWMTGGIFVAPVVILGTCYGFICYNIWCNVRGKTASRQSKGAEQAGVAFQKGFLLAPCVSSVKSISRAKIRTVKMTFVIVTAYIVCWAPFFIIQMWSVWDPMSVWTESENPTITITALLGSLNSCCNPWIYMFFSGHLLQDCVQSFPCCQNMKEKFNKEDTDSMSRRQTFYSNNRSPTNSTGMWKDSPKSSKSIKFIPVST

SMILES | pKi (Vasopressin V1a receptor) | pKi [1]
CC(C)C[C@@H]1NC(=O)[C@H](Cc2ccoc2)N(C)C(=O)[C@H](C(C)C)NC(=O)[C@H](Cc2ccoc2)N(C)C1=O | 5.15 | 
CC(C)[C@@H]1NC(=O)[C@H](Cc2ccoc2)N(C)C(=O)[C@H](Cc2ccoc2)NC(=O)[C@H](Cc2ccoc2)N(C)C1=O |  | 6.11
